{
  "source": "patent US4200626A",
  "about": "“Haloplatinate dental composition for preventing and inhibiting dental caries” (Toyo Seiyaku Kasei Co., Ltd., priority 1978, dated 1980)",
  "key": {"[1]": {"system": "protease (collagenase or trypsin)", "assay": "Inhibition of protease digestion of the soft tissue in dentin (clear zone on opaque agar plates with decalcified dentin powder)", "assay_type": "biochemical", "details": "for Clear zone: aqueous solution pH 5.4", "method": "The ability to inhibit digestion of the soft tissue in dentin was estimated according to the method described by Yanagida et al [Yanagida et al, Shonishikagaku Zasshi, Vol. 9, page 39 (1971)]. That is, firstly, a certain amount of human decalcified dentin powder was treated with a composition to be tested for certain minutes and then unbonded excess components were removed by dialysis to obtain a sample powder. Then, opaque agar plates were prepared by adding the sample powder, and a protease (collagenase or trypsin) was added to the plates. The inhibiting ability was estimated by observing whether a clear zone was formed on the plate or not. The clear zone is formed by dissolution of the powder with the enzyme, and the formation thereof means digestion of the soft tissue in dentin.\nEach composition used in the test is an aqueous solution at pH 5.4."}, "[2]": {"system": "mice", "assay": "LD50 in mice (p.o.)", "assay_type": "in vivo", "description": "Further, the dental composition of the present invention is useful from a viewpont of toxicity since these platinum compounds have lower toxicity than that of NaF."}, "[3]": {"assay": "Inhibition of acid decalcification of the hard tissue in dentin (human dentin powder)", "details": "for Inhibition rate of decalcification: solution containing 2% platinum (or saturated) or 2% NaF, pH 5.4", "method": "The ability to inhibit decalcification of the hard tissue was also estimated according to the method described by Nishino [Nishino, Osaka University Shigaku Zasshi, Vol. 1, page 1 (1969)]. That is, firstly, a certain amount of human dentin powder was treated with a composition to be tested for certain minutes and then unbonded excess components were removed by washing with water to obtain a sample powder. Then, the sample powder was treated with an acid solution (decalcification) and the amount of calcium in the solution, which was dissolved in the solution by action of the acid, was determined (sample calcium content). Similarly, untreated dentin powder was added to an acid solution and the amount of calcium in the acid solution was determined (control calcium content). From these values, the inhibition rate of decalcification was calculated as follows: [formula]\nAs a reference, a similar test was done by using an aqueous solution containing 2% of sodium fluoride (pH 5.4)."}},
  "data": [
    {"smiles": "[Cl][Pt-2]([Cl])([Cl])([Cl])([Cl])[Cl].[NH4+].[NH4+]", "note": "[(NH4)2 PtCl6, ammonium hexachloroplatinate]", "values": [
      {"measurement": "Clear zone", "setting": "[1]; platinum content 0.001%", "result": "Present"},
      {"measurement": "Clear zone", "setting": "[1]; platinum content 0.01%", "result": "None"},
      {"measurement": "Clear zone", "setting": "[1]; platinum content 0.1%", "result": "None"}
    ]},
    {"smiles": "[Cl][Pt-2]([Cl])([Cl])([Cl])([Cl])[Cl].[Na+].[Na+]", "note": "[Na2 PtCl6, sodium hexachloroplatinate]", "values": [
      {"measurement": "LD50 (p.o.)", "setting": "[2]", "result": "130 mg per kg of body weight"},
      {"measurement": "Inhibition rate of decalcification", "setting": "[3]; decalcification time 0.5 hour", "result": 43.42, "unit": "%"},
      {"measurement": "Inhibition rate of decalcification", "setting": "[3]; decalcification time 1.0 hour", "result": 45.23, "unit": "%"},
      {"measurement": "Inhibition rate of decalcification", "setting": "[3]; decalcification time 1.5 hour", "result": 45.15, "unit": "%"},
      {"measurement": "Inhibition rate of decalcification", "setting": "[3]; decalcification time 2.0 hour", "result": 45.36, "unit": "%"},
      {"measurement": "Inhibition rate of decalcification", "setting": "[3]; decalcification time 3.0 hour", "result": 47.57, "unit": "%"},
      {"measurement": "Inhibition rate of decalcification", "setting": "[3]; decalcification time 5.0 hour", "result": 47.77, "unit": "%"},
      {"measurement": "Inhibition rate of decalcification", "setting": "[3]; decalcification time 24.0 hour", "result": 48.00, "unit": "%"},
      {"measurement": "Inhibition rate of decalcification", "setting": "[3]; decalcification time 48.0 hour", "result": 48.20, "unit": "%"},
      {"measurement": "inhibiting effect on decalcification of the hard tissue in dentin", "setting": "[3]; result in words, from Table 2", "result": "superior inhibiting effect to that containing NaF at every decalcification time and the effect thereof is not decreased even though after 48 hours"},
      {"measurement": "Clear zone", "setting": "[1]; platinum content 0.001%", "result": "Present"},
      {"measurement": "Clear zone", "setting": "[1]; platinum content 0.01%", "result": "None"},
      {"measurement": "Clear zone", "setting": "[1]; platinum content 0.1%", "result": "None"}
    ]},
    {"smiles": "[I-].[I-].[I-].[I-].[I-].[I-].[K+].[K+].[Pt+4]", "note": "[K2 PtI6, potassium hexaiodoplatinate]", "values": [
      {"measurement": "Clear zone", "setting": "[1]; platinum content 0.001%", "result": "Present"},
      {"measurement": "Clear zone", "setting": "[1]; platinum content 0.01%", "result": "None"},
      {"measurement": "Clear zone", "setting": "[1]; platinum content 0.1%", "result": "None"}
    ]},
    {"smiles": "[F-].[Na+]", "note": "[NaF, sodium fluoride, reference compound]", "values": [
      {"measurement": "LD50 (p.o.)", "setting": "[2]", "result": "about 90 mg per kg of body weight"},
      {"measurement": "Inhibition rate of decalcification", "setting": "[3]; decalcification time 0.5 hour", "result": 40.03, "unit": "%"},
      {"measurement": "Inhibition rate of decalcification", "setting": "[3]; decalcification time 1.0 hour", "result": 43.29, "unit": "%"},
      {"measurement": "Inhibition rate of decalcification", "setting": "[3]; decalcification time 1.5 hour", "result": 44.12, "unit": "%"},
      {"measurement": "Inhibition rate of decalcification", "setting": "[3]; decalcification time 2.0 hour", "result": 44.02, "unit": "%"},
      {"measurement": "Inhibition rate of decalcification", "setting": "[3]; decalcification time 3.0 hour", "result": 44.33, "unit": "%"},
      {"measurement": "Inhibition rate of decalcification", "setting": "[3]; decalcification time 5.0 hour", "result": 44.79, "unit": "%"},
      {"measurement": "Inhibition rate of decalcification", "setting": "[3]; decalcification time 24.0 hour", "result": 44.93, "unit": "%"},
      {"measurement": "Inhibition rate of decalcification", "setting": "[3]; decalcification time 48.0 hour", "result": 45.45, "unit": "%"},
      {"measurement": "inhibition of the digestion", "setting": "[1]; similar test using sodium fluoride, result in words", "result": "no inhibition of the digestion was observed"}
    ]},
    {"smiles": "[Cl][Pt-2]([Cl])([Cl])[Cl].[K+].[K+]", "note": "[K2 PtCl4, potassium tetrachloroplatinate]", "values": [
      {"measurement": "LD50 (p.o.)", "setting": "[2]", "result": "97 mg per kg of body weight"},
      {"measurement": "Inhibition rate of decalcification", "setting": "[3]; decalcification time 0.5 hour", "result": 27.28, "unit": "%"},
      {"measurement": "Inhibition rate of decalcification", "setting": "[3]; decalcification time 1.0 hour", "result": 28.11, "unit": "%"},
      {"measurement": "Inhibition rate of decalcification", "setting": "[3]; decalcification time 1.5 hour", "result": 30.86, "unit": "%"},
      {"measurement": "Inhibition rate of decalcification", "setting": "[3]; decalcification time 2.0 hour", "result": 29.65, "unit": "%"},
      {"measurement": "Inhibition rate of decalcification", "setting": "[3]; decalcification time 3.0 hour", "result": 30.22, "unit": "%"},
      {"measurement": "Inhibition rate of decalcification", "setting": "[3]; decalcification time 5.0 hour", "result": 31.54, "unit": "%"},
      {"measurement": "Inhibition rate of decalcification", "setting": "[3]; decalcification time 24.0 hour", "result": 31.69, "unit": "%"},
      {"measurement": "Inhibition rate of decalcification", "setting": "[3]; decalcification time 48.0 hour", "result": 32.27, "unit": "%"},
      {"measurement": "Clear zone", "setting": "[1]; platinum content 0.001%", "result": "Present"},
      {"measurement": "Clear zone", "setting": "[1]; platinum content 0.01%", "result": "None"},
      {"measurement": "Clear zone", "setting": "[1]; platinum content 0.1%", "result": "None"}
    ]}
  ]
}
